Laboratory results from patent US20180133327A1, “Cell Penetrating Peptides and Complexes Comprising the Same” (Amal Therapeutics SA, priority 2015, published 2018).

What was measured:
[1] = tested on: human MART1-specific CD8 T cells; experiment: In vitro epitope presentation (MHC I) assay by human dendritic cells; type: cell-based; settings: human monocyte-derived DCs loaded with 1 μM Zxx-MART1 for 4 h; intracellular staining for CD107, IFN-γ and TNF-α
Procedure: Human monocyte-derived DCs were loaded with 1 μM of scramble-MART1, Z13-MART1, Z14-MART1, Z15-MART1 or Z18-MART1 for 4 h, wash and then incubated o.n. at 37° C. Specific TCR-transfected T cells were then added to DCs and incubated for 5 h with monensin and brefeldinA before intracellular FACS staining for CD107, IFN-γ and TNF-α.
In order to assess the capacity of the ZEBRA CPP truncations to promote epitope presentation by human DCs, the following constructs (Z13-MART1, Z14-MART1, Z15-MART1 and Z18-MART1, with each of the Z13, Z14, Z15 and Z18 CPP conjugated to the HLA-A2 epitope of the tumor associated antigen (TAA) MART1)) were synthesized:
These constructs (Z13, Z14, Z15, and Z18 CPPs conjugated to the HLA-A2 epitope of the tumor associated antigen (TAA) MART1) were assessed for their capacity to promote epitope presentation on MHC class I by human DCs. To this purpose, DCs from an HLA-A2+ donor were prepared from elutriated monocytes, cultured in CelIGro DC medium (CellGenix, Freiburg, Germany) with granulocyte-macrophage colony-stimulating factor (GM-CSF; 2500 U/ml) (Leucomax; Schering-Plough, Kenilworth, N.J.) and interleukin-4 (IL-4; 1000 U/ml) (CellGenix). The immature DCs were matured with cytokines: IL-1β (10 ng/ml), IL-6 (1000 U/ml), tumor necrosis factor α (TNFα; 10 ng/ml) (all from CellGenix) and prostaglandin E2 (1 μg/ml) (Sigma-Aldrich). DCs were rested in CellGro DC medium for 2 hours and loaded with 1 μM Scramble-MART1, Z13-MART1, Z14-MART1, Z15-MART-1 or Z18-MART1 for 4 hrs at 37° C. before being washed once and plated at 300 000 cells per well in round-bottomed 96-well plates. Non-peptide loaded DCs were used as a negative control. T cells were expanded from peripheral blood mononuclear cells using Dynabeads ClinExVivo CD3/CD28 (Life Technologies, Oslo, Norway). Expanded T cells (day 10 post activation) were transfected with the DMFS TCR specific for MART1 by mRNA electroporation. T cells were co-incubated with DCs at a ratio of 1:2 for 5 hours in the presence of GolgiPlug and GolgiStop (both BD Biosciences) before intracellular staining was performed using the following antibodies after FcR blocking; CD4 (RPAT4), CD8 (RPAT8), CD107a (H4A3) (BD Biosciences), IFN-γ (4S.B3) and TNF-α (MAb11) (BD Biosciences), all from eBioscience except where noted. Fixation and permabilization was performed using the PerFix kit from Beckman Coulter according to manufacturer's instructions. Cells were analysed using an LSR II flow cytometer (BD Biosciences) and results were processed with Kaluza (Beckman Coulter) software. All conditions were tested in duplicate, and the experiment was repeated up to three times.

[2] = tested on: self antigen (CD8 epitope from gp100)-specific CD8 T cells; experiment: Self antigen-specific CD8 T cell response after vaccination (gp100CD8 restimulation, multimer staining); type: in vivo, mice; settings: 10 nmol ZxxOVACD4gp100CD8 s.c. wk0, wk2, wk9, combined with MPLA or Hiltonol
Procedure: The constructs were tested in combination with Hiltonol (A) and MPLA (B). Briefly, Mice were vaccinated three times (wk0, wk2 and wk9) by s.c. injection (right flank) of 10 nmol of Z13OVACD4gp1 00CD8, Z14OVACD4gp1 00CD8, Z18OVACD4gp100CD8 and i.m. injection of […] of Hiltonol (right hind leg) or s.c. injection of 20 μg of MPLA. One week after the last vaccination, spleen cells were restimulated in vitro for 7 days with gp100CD8 peptide and stained as described in Example 6.
To extend the previous findings to self antigen-specific immune response, Z13, Z14 and Z18 conjugated to antigenic cargo containing a self antigen (CD8 epitope from gp100) and CD4 T cell epitope from OVA were synthesized.
Firstly, those constructs were tested with Hiltonol or MPLA adjuvant. To this end, mice were vaccinated three times (wk0, wk2 and wk9) by s.c. injection (right flank) of 10 nmol of Z13OVACD4gp100CD8, Z14OVACD4gp100CD8, Z18OVACD4gp100CD8 and i.m. injection of 50 μg of Hiltonol (right hind leg) or s.c. injection of 20 μg of MPLA. One week after the last vaccination, spleen cells were restimulated in vitro for 7 days with gp100CD8 peptide and stained as follow. Briefly, for surface staining, after FcR blocking, the following mAb were used: CD4 (RMA4-4), CD8 (53-6.7), CD11b (M1/70), CD19 (6D5), all from BD Biosciences. Dead cells were identified with LIVE/DEAD yellow fluorescent reactive dye (L34959) from Life Technologies and were excluded from analyses. MHC-peptide multimers were from Immudex (Copenhagen, Denmark). Multimer gating strategy used a dump gate (CD4, CD11b, CD19) and excluded dead cells.

Sequence | stimulation of human MART1-specific CD8 T cells [1] | self antigen-specific CD8 T cell immune response [2]
KRYKNRVASRKSRAKFK (CPP Z15) [ZEBRA CPP truncation] | particularly efficacious | –
KRYKNRVASRKSRAKFKQLLQHYREVAAAK [Z14] | particularly efficacious | high self antigen-specific CD8 immune response
KRYKNRVASRKSRAKFKQLLQHYREVAAAKSSENDRLRLLLK [Z13] | particularly efficacious | high self antigen-specific CD8 immune response
REVAAAKSSENDRLRLLLK [Z18] | markedly less efficient | did not elicit self antigen-specific CD8 T cell responses
